Experimental data as given in patent US11395847B2, “Acylated GLP-1/GLP-2 dual agonists” (Zealand Pharma A/S, priority 2016, dated 2022).
Where a SMILES comes first, the peptide text is derived from it. [ ]: non-standard residue; d: D form. The star is where a group is joined. Stearoyl = CCCCCCCCCCCCCCCCCC(=O)*; Aib = CC(C)(N)C(=O)O

Biological target: T1, human GLP-1 receptor (Homo sapiens, UniProt P43220)
T1 construct: expressed in transfected cells
Test: GLP-1 receptor potency assay (cAMP ALPHASCREEN, HEK293 cells stably expressing GLP-1 R)
Type: cell-based
Details: cAMP response, HEK293 cells expressing human GLP-1 R
Excerpt: One useful in vitro assay for measuring GLP-1 and GLP-2 receptor activity is quantitation of cAMP, i.e. 3′-5′-cyclic adenosine monophosphate, which is a second messenger essential in many biological processes, and one of the most ubiquitous mechanisms for regulating cellular functions.
The cDNA encoding the human glucagon-like peptide 1 receptor (GLP-1 R) (primary accession number P43220) was cloned from the cDNA BC112126 (MGC:138331/IMAGE:8327594). The DNA encoding the GLP-1-R was amplified by PCR using primers encoding terminal restriction sites for subcloning. The 5′-end primers additionally encoded a near Kozak consensus sequence to ensure efficient translation. […] The PCR products encoding the GLP-1-R were subcloned into a mammalian expression vector containing a neomycin (G418) resistance marker. The mammalian expression vectors encoding the GLP-1-R were transfected into HEK293 cells by a standard calcium phosphate transfection method. 48 hours post-transfection, cells were seeded for limited dilution cloning and selected with 1 mg/ml G418 in the culture medium. Following 3 weeks in G418 selection clones were picked and tested in a functional GLP-1 receptor potency assay as described below.
The cAMP ALPHASCREEN® assay from Perkin Elmer was used to quantitate the cAMP response to activation of the GLP1 and GLP2 receptor, respectively. […] Data from test compounds eliciting an increase in the intracellular level of cAMP were normalized relative to the positive and negative control (vehicle) to calculate the EC50 and maximal response from the concentration response curve.

T1 sequence (P43220 24-463): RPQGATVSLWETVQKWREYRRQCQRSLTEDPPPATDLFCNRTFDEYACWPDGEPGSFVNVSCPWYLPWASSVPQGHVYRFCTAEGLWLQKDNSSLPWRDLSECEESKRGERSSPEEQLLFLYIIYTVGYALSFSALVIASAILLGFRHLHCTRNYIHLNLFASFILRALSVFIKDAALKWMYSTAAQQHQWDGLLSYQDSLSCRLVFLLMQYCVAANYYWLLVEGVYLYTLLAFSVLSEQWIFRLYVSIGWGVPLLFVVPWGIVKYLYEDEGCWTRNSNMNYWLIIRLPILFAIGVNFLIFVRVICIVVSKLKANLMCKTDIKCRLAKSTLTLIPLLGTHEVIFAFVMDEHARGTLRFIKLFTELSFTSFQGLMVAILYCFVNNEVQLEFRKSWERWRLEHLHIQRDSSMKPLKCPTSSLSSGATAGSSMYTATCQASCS

SMILES	EC50
CC[C@H](C)[C@H](NC(=O)[C@H](CC(C)C)NC(=O)[C@H](Cc1c[nH]c2ccccc12)NC(=O)[C@H](C)NC(=O)[C@@H](NC(=O)[C@H](Cc1ccccc1)NC(=O)[C@H](CC(=O)O)NC(=O)[C@H](CCCNC(=N)N)NC(=O)[C@H](C)NC(=O)[C@H](C)NC(=O)[C@H](CC(C)C)NC(=O)[C@H](CCCCNC(=O)CC[C@H](NC(=O)CCCCCCCCCCCCCCCCC(=O)O)C(=O)O)NC(=O)[C@H](CC(=O)O)NC(=O)[C@H](CC(C)C)NC(=O)[C@@H](NC(=O)[C@@H](NC(=O)[C@H](C)NC(=O)[C@H](CC(C)C)NC(=O)[C@H](CCC(=O)O)NC(=O)[C@H](CO)NC(=O)[C@@H](NC(=O)[C@H](Cc1ccccc1)NC(=O)[C@@H](NC(=O)CNC(=O)[C@H](CCC(=O)O)NC(=O)C(C)(C)NC(=O)[C@@H](N)Cc1c[nH]cn1)[C@@H](C)O)[C@@H](C)O)[C@@H](C)O)[C@@H](C)CC)[C@@H](C)CC)C(=O)N[C@@H](C)C(=O)N[C@@H](Cc1c[nH]cn1)C(=O)N[C@@H](CCCCN)C(=O)N[C@H](C(=O)N[C@H](C(=O)N[C@@H](CC(=O)O)C(=O)O)[C@@H](C)O)[C@@H](C)CC [Compound 15] (HELM PEPTIDE1{H.[Aib].E.G.T.F.T.S.E.L.A.T.I.L.D.K.L.A.A.R.D.F.I.A.W.L.I.A.H.K.I.T.D}|PEPTIDE2{[O=C(O)CCCCCCCCCCCCCCCCC(=O)[*:2]].[gGlu]}$PEPTIDE1,PEPTIDE2,16:R3-2:R2$$$V2.0)	250 pM
CC[C@H](C)[C@H](NC(=O)[C@H](CC(C)C)NC(=O)[C@H](Cc1c[nH]c2ccccc12)NC(=O)[C@H](C)NC(=O)[C@@H](NC(=O)[C@H](Cc1ccccc1)NC(=O)[C@H](CC(=O)O)NC(=O)[C@H](CCCNC(=N)N)NC(=O)[C@H](C)NC(=O)[C@H](C)NC(=O)[C@H](CCC(N)=O)NC(=O)[C@H](CCCCNC(=O)CC[C@H](NC(=O)CCCCCCCCCCCCCCCCC(=O)O)C(=O)O)NC(=O)[C@H](CC(=O)O)NC(=O)[C@H](CC(C)C)NC(=O)[C@@H](NC(=O)[C@@H](NC(=O)[C@H](C)NC(=O)[C@H](CC(C)C)NC(=O)[C@H](CCC(=O)O)NC(=O)[C@H](CO)NC(=O)[C@H](CO)NC(=O)[C@H](Cc1ccccc1)NC(=O)[C@@H](NC(=O)CNC(=O)[C@H](CCC(=O)O)NC(=O)C(C)(C)NC(=O)[C@@H](N)Cc1c[nH]cn1)[C@@H](C)O)[C@@H](C)O)[C@@H](C)CC)[C@@H](C)CC)C(=O)N[C@@H](C)C(=O)N[C@@H](Cc1c[nH]cn1)C(=O)N[C@@H](CCCCN)C(=O)N[C@H](C(=O)N[C@H](C(=O)N[C@@H](CC(=O)O)C(=O)O)[C@@H](C)O)[C@@H](C)CC [Compound 21] (HELM PEPTIDE1{H.[Aib].E.G.T.F.S.S.E.L.A.T.I.L.D.K.Q.A.A.R.D.F.I.A.W.L.I.A.H.K.I.T.D}|PEPTIDE2{[O=C(O)CCCCCCCCCCCCCCCCC(=O)[*:2]].[gGlu]}$PEPTIDE1,PEPTIDE2,16:R3-2:R2$$$V2.0)	1800 pM
CCCCCCCCCCCCCCCCCC(=O)NCCCC[C@H](NC(=O)[C@H](CC(=O)O)NC(=O)[C@H](CC(C)C)NC(=O)[C@@H](NC(=O)[C@@H](NC(=O)[C@H](C)NC(=O)[C@H](CC(C)C)NC(=O)[C@H](CCC(=O)O)NC(=O)[C@H](CO)NC(=O)[C@@H](NC(=O)[C@H](Cc1ccccc1)NC(=O)[C@H](CO)NC(=O)CNC(=O)[C@H](CCC(=O)O)NC(=O)C(C)(C)NC(=O)[C@@H](N)Cc1c[nH]cn1)[C@@H](C)O)[C@@H](C)O)[C@@H](C)CC)C(=O)N[C@@H](CCC(N)=O)C(=O)N[C@@H](C)C(=O)N[C@@H](C)C(=O)N[C@@H](CCCNC(=N)N)C(=O)N[C@@H](CC(=O)O)C(=O)N[C@@H](Cc1ccccc1)C(=O)N[C@H](C(=O)N[C@@H](C)C(=O)N[C@@H](Cc1c[nH]c2ccccc12)C(=O)N[C@@H](CC(C)C)C(=O)N[C@H](C(=O)N[C@@H](CCC(N)=O)C(=O)N[C@@H](Cc1ccc(O)cc1)C(=O)N[C@@H](CCCCN)C(=O)N[C@H](C(=O)N[C@H](C(=O)N[C@@H](CC(=O)O)C(=O)O)[C@@H](C)O)[C@@H](C)CC)[C@@H](C)CC)[C@@H](C)CC [Compound 36] (H-H[Aib]EGSFTSELATILDK(Stearoyl)QAARDFIAWLIQYKITD-OH)	320 pM

Next, values leading:

EC50	SMILES
20 pM	CC[C@H](C)[C@H](NC(=O)[C@H](Cc1ccccc1)NC(=O)[C@H](CC(=O)O)NC(=O)[C@H](CCCNC(=N)N)NC(=O)[C@H](C)NC(=O)[C@H](C)NC(=O)[C@H](CCC(N)=O)NC(=O)[C@H](CCCCNC(=O)COCCOCCNC(=O)[C@H](CCCCN)NC(=O)[C@H](CCC(=O)O)NC(=O)[C@H](CCCCN)NC(=O)CC[C@H](NC(=O)CCCCCCCCCCCCCCCCCCC(=O)O)C(=O)O)NC(=O)[C@H](CC(=O)O)NC(=O)[C@H](CC(C)C)NC(=O)[C@@H](NC(=O)[C@@H](NC(=O)[C@H](C)NC(=O)[C@H](CC(C)C)NC(=O)[C@H](CCC(=O)O)NC(=O)[C@H](CO)NC(=O)[C@@H](NC(=O)[C@H](Cc1ccccc1)NC(=O)[C@@H](NC(=O)CNC(=O)[C@H](CCC(=O)O)NC(=O)C(C)(C)NC(=O)[C@@H](N)Cc1c[nH]cn1)[C@@H](C)O)[C@@H](C)O)[C@@H](C)O)[C@@H](C)CC)C(=O)N[C@@H](C)C(=O)N[C@@H](Cc1c[nH]c2ccccc12)C(=O)N[C@@H](CC(C)C)C(=O)N[C@H](C(=O)N[C@@H](CCC(N)=O)C(=O)N[C@@H](Cc1c[nH]cn1)C(=O)N[C@@H](CCCCN)C(=O)N[C@H](C(=O)N[C@H](C(=O)N[C@@H](CC(=O)O)C(=O)O)[C@@H](C)O)[C@@H](C)CC)[C@@H](C)CC [Compound 52] (HELM PEPTIDE1{H.[Aib].E.G.T.F.T.S.E.L.A.T.I.L.D.K.Q.A.A.R.D.F.I.A.W.L.I.Q.H.K.I.T.D}|PEPTIDE2{[O=C(O)CCCCCCCCCCCCCCCCCCC(=O)[*:2]].[gGlu].K.E.K.[O=C(COCCOCCN[*:1])[*:2]]}$PEPTIDE1,PEPTIDE2,16:R3-6:R2$$$V2.0)
270 pM	CC[C@H](C)[C@H](NC(=O)[C@H](Cc1ccccc1)NC(=O)[C@H](CC(=O)O)NC(=O)[C@H](CCCNC(=N)N)NC(=O)[C@H](C)NC(=O)[C@H](C)NC(=O)[C@H](CCC(N)=O)NC(=O)[C@H](CCCCNC(=O)COCCOCCNC(=O)[C@H](CCCCN)NC(=O)[C@H](CCC(=O)O)NC(=O)[C@H](CCCCN)NC(=O)CC[C@H](NC(=O)CCCCCCCCCCCCCCCCC(=O)O)C(=O)O)NC(=O)[C@H](CC(=O)O)NC(=O)[C@H](CC(C)C)NC(=O)[C@@H](NC(=O)[C@@H](NC(=O)[C@H](C)NC(=O)[C@H](CC(C)C)NC(=O)[C@H](CCC(=O)O)NC(=O)[C@H](CO)NC(=O)[C@H](CO)NC(=O)[C@H](Cc1ccccc1)NC(=O)[C@@H](NC(=O)CNC(=O)[C@H](CCC(=O)O)NC(=O)C(C)(C)NC(=O)[C@@H](N)Cc1c[nH]cn1)[C@@H](C)O)[C@@H](C)O)[C@@H](C)CC)C(=O)N[C@@H](C)C(=O)N[C@@H](Cc1c[nH]c2ccccc12)C(=O)N[C@@H](CC(C)C)C(=O)N[C@H](C(=O)N[C@@H](CCC(=O)O)C(=O)N[C@@H](Cc1c[nH]cn1)C(=O)N[C@@H](CCCCN)C(=O)N[C@H](C(=O)N[C@H](C(=O)N[C@@H](CC(=O)O)C(=O)O)[C@@H](C)O)[C@@H](C)CC)[C@@H](C)CC [Compound 49] (HELM PEPTIDE1{H.[Aib].E.G.T.F.S.S.E.L.A.T.I.L.D.K.Q.A.A.R.D.F.I.A.W.L.I.E.H.K.I.T.D}|PEPTIDE2{[O=C(O)CCCCCCCCCCCCCCCCC(=O)[*:2]].[gGlu].K.E.K.[O=C(COCCOCCN[*:1])[*:2]]}$PEPTIDE1,PEPTIDE2,16:R3-6:R2$$$V2.0)
250 pM	CC[C@H](C)[C@H](NC(=O)[C@H](CC(C)C)NC(=O)[C@H](Cc1c[nH]c2ccccc12)NC(=O)[C@H](C)NC(=O)[C@@H](NC(=O)[C@H](Cc1ccccc1)NC(=O)[C@H](CC(=O)O)NC(=O)[C@H](CCCNC(=N)N)NC(=O)[C@H](C)NC(=O)[C@H](C)NC(=O)[C@H](CCC(N)=O)NC(=O)[C@H](CCC(=O)O)NC(=O)[C@H](CC(=O)O)NC(=O)[C@H](CC(C)C)NC(=O)[C@@H](NC(=O)[C@@H](NC(=O)[C@H](C)NC(=O)[C@H](CC(C)C)NC(=O)[C@H](CCC(=O)O)NC(=O)[C@H](CO)NC(=O)[C@H](CO)NC(=O)[C@H](Cc1ccccc1)NC(=O)[C@@H](NC(=O)CNC(=O)[C@H](CCC(=O)O)NC(=O)C(C)(C)NC(=O)[C@@H](N)Cc1c[nH]cn1)[C@@H](C)O)[C@@H](C)O)[C@@H](C)CC)[C@@H](C)CC)C(=O)N[C@@H](C)C(=O)N[C@@H](Cc1c[nH]cn1)C(=O)N[C@@H](CCCCN)C(=O)N[C@H](C(=O)N[C@H](C(=O)N[C@@H](CC(=O)O)C(=O)N[C@H](CCCCN)C(=O)N[C@H](CCCCN)C(=O)N[C@H](CCCCN)C(=O)N[C@H](CCCCN)C(=O)N[C@H](CCCCN)C(=O)N[C@H](CCCCNC(=O)CC[C@H](NC(=O)CCCCCCCCCCCCCCCCC(=O)O)C(=O)O)C(N)=O)[C@@H](C)O)[C@@H](C)CC [Compound 38] (HELM PEPTIDE1{H.[Aib].E.G.T.F.S.S.E.L.A.T.I.L.D.E.Q.A.A.R.D.F.I.A.W.L.I.A.H.K.I.T.D.[dK].[dK].[dK].[dK].[dK].[dK].[am]}|PEPTIDE2{[O=C(O)CCCCCCCCCCCCCCCCC(=O)[*:2]].[gGlu]}$PEPTIDE1,PEPTIDE2,39:R3-2:R2$$$V2.0)
